# Assay results taken from PMC5218480 (PLoS ONE, 2017).
# Tested on: MV-4-11 cells
# Test: Gene expression microarray analysis (Affymetrix PrimeView) and GSEA
# Type: cell-based, human
# Parameters: RFU PODN (11730768_x_at) / Fold change /veh PODN (11730768_x_at) / RFU LINC00158 (11744669_a_at) / Fold change /veh LINC00158 (11744669_a_at) / RFU DUSP10 (11751237_a_at) / Fold change /veh DUSP10 (11751237_a_at) / RFU ID3 (11757404_x_at) / Fold change /veh ID3 (11757404_x_at) / RFU PLEKHG5 (11737974_s_at) / Fold change /veh PLEKHG5 (11737974_s_at) / RFU LRRC4B (11730491_at) / Fold change /veh LRRC4B (11730491_at) / RFU GIMAP4 (11747438_a_at) / Fold change /veh GIMAP4 (11747438_a_at) / RFU KRT8 (11758183_x_at) / Fold change /veh KRT8 (11758183_x_at) / RFU CNN1 (11734310_a_at) / Fold change /veh CNN1 (11734310_a_at) / RFU VPS37D (11726825_at) / Fold change /veh VPS37D (11726825_at) / RFU C10orf10 (11716522_x_at) / Fold change /veh C10orf10 (11716522_x_at) / RFU KIR2DL2 /// KIR2DL4 /// KIR2DL5A /// KIR2DL5B /// KIR2DS1 /// KIR2DS2 /// KIR2DS3 /// KIR2DS4 /// KIR3DL3 /// KIR3DL3 /// KIR3DS1 (11738374_at) / Fold change /veh KIR2DL2 /// KIR2DL4 /// KIR2DL5A /// KIR2DL5B /// KIR2DS1 /// KIR2DS2 /// KIR2DS3 /// KIR2DS4 /// KIR3DL3 /// KIR3DL3 /// KIR3DS1 (11738374_at) / RFU C1QL1 (11718748_at) / Fold change /veh C1QL1 (11718748_at) / RFU TMPRSS4 (11747572_a_at) / Fold change /veh TMPRSS4 (11747572_a_at) / RFU HAMP (11756126_x_at) / Fold change /veh HAMP (11756126_x_at) / RFU RNFT2 (11725882_a_at) / Fold change /veh RNFT2 (11725882_a_at) / RFU NR4A2 (11747474_a_at) / Fold change /veh NR4A2 (11747474_a_at) / RFU ABCC12 (11746883_a_at) / Fold change /veh ABCC12 (11746883_a_at) / RFU TMEM136 (11760407_x_at) / Fold change /veh TMEM136 (11760407_x_at) / RFU CLDN22 /// WWC2 (11732394_at) / Fold change /veh CLDN22 /// WWC2 (11732394_at) / RFU HLA-DPB1 (11760878_x_at) / Fold change /veh HLA-DPB1 (11760878_x_at) / RFU SPINT1 (11716480_a_at) / Fold change /veh SPINT1 (11716480_a_at) / RFU GAP43 (11754022_s_at) / Fold change /veh GAP43 (11754022_s_at) / RFU A4GNT (11735810_at) / Fold change /veh A4GNT (11735810_at) / RFU PRB3 (11715151_x_at) / Fold change /veh PRB3 (11715151_x_at) / RFU TUBB4B (11761932_at) / Fold change /veh TUBB4B (11761932_at) / RFU CAPN14 (11732068_a_at) / Fold change /veh CAPN14 (11732068_a_at) / RFU TMCC2 (11721928_a_at) / Fold change /veh TMCC2 (11721928_a_at) / RFU IRGQ (11745062_a_at) / Fold change /veh IRGQ (11745062_a_at) / RFU FAM174B (11720279_a_at) / Fold change /veh FAM174B (11720279_a_at) / RFU TMPRSS4 (11748680_a_at) / Fold change /veh TMPRSS4 (11748680_a_at) / RFU FAM212B (11763350_a_at) / Fold change /veh FAM212B (11763350_a_at) / RFU PLEKHG5 (11743358_a_at) / Fold change /veh PLEKHG5 (11743358_a_at) / RFU ZSCAN30 (11745921_a_at) / Fold change /veh ZSCAN30 (11745921_a_at) / RFU CMKLR1 (11741424_a_at) / Fold change /veh CMKLR1 (11741424_a_at) / RFU LOC101060620 /// MAPK8IP1 (11723275_at) / Fold change /veh LOC101060620 /// MAPK8IP1 (11723275_at) / RFU SPTSSB (11747773_x_at) / Fold change /veh SPTSSB (11747773_x_at) / RFU PRSS12 (11739890_at) / Fold change /veh PRSS12 (11739890_at) / RFU BIN1 (11741810_x_at) / Fold change /veh BIN1 (11741810_x_at) / RFU WNT11 (11732464_a_at) / Fold change /veh WNT11 (11732464_a_at) / RFU C10orf10 (11716521_a_at) / Fold change /veh C10orf10 (11716521_a_at) / RFU C5orf56 (11738089_at) / Fold change /veh C5orf56 (11738089_at) / RFU CYB561 (11721691_x_at) / Fold change /veh CYB561 (11721691_x_at) / RFU ANKRD19P (11752326_a_at) / Fold change /veh ANKRD19P (11752326_a_at) / RFU OR2T12 /// OR2T33 /// OR2T8 (11738714_s_at) / Fold change /veh OR2T12 /// OR2T33 /// OR2T8 (11738714_s_at) / RFU VCAN (11748164_a_at) / Fold change /veh VCAN (11748164_a_at) / RFU JSRP1 (11732532_at) / Fold change /veh JSRP1 (11732532_at) / RFU KRTAP10-11 (11738290_x_at) / Fold change /veh KRTAP10-11 (11738290_x_at) / RFU MYO3A (11730013_a_at) / Fold change /veh MYO3A (11730013_a_at) / RFU EBF3 (11725865_a_at) / Fold change /veh EBF3 (11725865_a_at) / RFU CAMK2N1 (11719241_x_at) / Fold change /veh CAMK2N1 (11719241_x_at) / RFU C5orf56 (11738088_a_at) / Fold change /veh C5orf56 (11738088_a_at) / RFU OLFML3 (11715873_a_at) / Fold change /veh OLFML3 (11715873_a_at) / RFU LOC100653217 /// NTM (11731650_a_at) / Fold change /veh LOC100653217 /// NTM (11731650_a_at) / RFU MAPK11 (11762145_a_at) / Fold change /veh MAPK11 (11762145_a_at) / RFU FIZ1 (11724087_x_at) / Fold change /veh FIZ1 (11724087_x_at) / RFU OASL (11726364_x_at) / Fold change /veh OASL (11726364_x_at) / RFU SOX15 (11748057_x_at) / Fold change /veh SOX15 (11748057_x_at) / RFU CD79A (11719716_a_at) / Fold change /veh CD79A (11719716_a_at) / RFU HIST1H1D (11736915_at) / Fold change /veh HIST1H1D (11736915_at) / RFU CASKIN2 (11723855_a_at) / Fold change /veh CASKIN2 (11723855_a_at) / RFU LOC730098 (11760151_x_at) / Fold change /veh LOC730098 (11760151_x_at) / RFU OR4N2 (11742367_at) / Fold change /veh OR4N2 (11742367_at) / RFU PRRT2 (11749266_a_at) / Fold change /veh PRRT2 (11749266_a_at) / RFU SNX32 (11753110_a_at) / Fold change /veh SNX32 (11753110_a_at) / RFU CDHR5 (11726645_a_at) / Fold change /veh CDHR5 (11726645_a_at) / RFU RCAN1 (11760418_a_at) / Fold change /veh RCAN1 (11760418_a_at) / RFU FAM167A (11723789_a_at) / Fold change /veh FAM167A (11723789_a_at) / RFU FAM26E (11764081_at) / Fold change /veh FAM26E (11764081_at) / RFU ISYNA1 (11749810_s_at) / Fold change /veh ISYNA1 (11749810_s_at) / RFU ACY1 (11761880_at) / Fold change /veh ACY1 (11761880_at) / RFU 11764098_at / Fold change /veh 11764098_at / RFU SAMD14 (11745864_x_at) / Fold change /veh SAMD14 (11745864_x_at) / RFU NPB (11741838_a_at) / Fold change /veh NPB (11741838_a_at) / RFU TMPRSS6 (11731388_a_at) / Fold change /veh TMPRSS6 (11731388_a_at) / RFU KRTAP10-2 (11738614_at) / Fold change /veh KRTAP10-2 (11738614_at) / RFU ARHGAP8 /// PRR5-ARHGAP8 (11727945_x_at) / Fold change /veh ARHGAP8 /// PRR5-ARHGAP8 (11727945_x_at) / RFU KRTAP5-7 /// NADSYN1 (11734609_at) / Fold change /veh KRTAP5-7 /// NADSYN1 (11734609_at) / RFU RASL12 (11751679_a_at) / Fold change /veh RASL12 (11751679_a_at) / RFU CDKN2B (11736163_a_at) / Fold change /veh CDKN2B (11736163_a_at) / RFU PRF1 (11729649_at) / Fold change /veh PRF1 (11729649_at) / RFU, ZNF638 /// ZNF638-IT1 / Fold change vs veh, ZNF638 /// ZNF638-IT1 / RFU, PANK3 / Fold change vs veh, PANK3 / RFU, SH3YL1 / Fold change vs veh, SH3YL1 / RFU, ZEB2 / Fold change vs veh, ZEB2 / RFU, NRIP1 / Fold change vs veh, NRIP1 / RFU, PTTG1IP / Fold change vs veh, PTTG1IP / RFU, CAPN2 / Fold change vs veh, CAPN2 / RFU, MED14 / Fold change vs veh, MED14 / RFU, SNORA58 / Fold change vs veh, SNORA58 / RFU, C1orf63 / Fold change vs veh, C1orf63 / RFU, LRRFIP1 / Fold change vs veh, LRRFIP1 / RFU, NDUFAF7 / Fold change vs veh, NDUFAF7 / RFU, SLC12A2 / Fold change vs veh, SLC12A2 / RFU, IBTK / Fold change vs veh, IBTK / RFU, ESF1 / Fold change vs veh, ESF1 / Fold change vs veh, TMEM50B / RFU, TAOK1 / Fold change vs veh, TAOK1 / RFU, ACBD3 / Fold change vs veh, ACBD3 / RFU, TMA16 / Fold change vs veh, TMA16 / RFU, RWDD3 / Fold change vs veh, RWDD3 / RFU, BCAT1 / Fold change vs veh, BCAT1 / RFU, EDEM3 / Fold change vs veh, EDEM3 / RFU, TMEM33 / Fold change vs veh, TMEM33 / RFU, WDR75 / Fold change vs veh, WDR75 / RFU, AHCTF1 / Fold change vs veh, AHCTF1 / RFU, TFRC / Fold change vs veh, TFRC / RFU, ZDHHC17 / Fold change vs veh, ZDHHC17 / RFU, NOM1 / Fold change vs veh, NOM1 / RFU, ARL8B / Fold change vs veh, ARL8B / RFU, ZBTB11 / Fold change vs veh, ZBTB11 / RFU, TAMM41 / Fold change vs veh, TAMM41 / RFU, KIAA1704 /// LOC100996395 / Fold change vs veh, KIAA1704 /// LOC100996395 / RFU, ING1 / Fold change vs veh, ING1 / RFU, TRMT61B / Fold change vs veh, TRMT61B / RFU, FUBP3 / Fold change vs veh, FUBP3 / RFU, TP53 / Fold change vs veh, TP53 / RFU, TNKS2 / Fold change vs veh, TNKS2 / RFU, ZFP14 / Fold change vs veh, ZFP14 / RFU, ACTR2 / Fold change vs veh, ACTR2 / RFU, PPP3R1 / Fold change vs veh, PPP3R1 / RFU, PIK3R1 / Fold change vs veh, PIK3R1 / RFU, HNRNPA1 / Fold change vs veh, HNRNPA1 / RFU, RNF170 / Fold change vs veh, RNF170 / RFU, ZNF28 / Fold change vs veh, ZNF28 / RFU, RNGTT / Fold change vs veh, RNGTT / RFU, OGT / Fold change vs veh, OGT / RFU, BRD1 / Fold change vs veh, BRD1 / RFU, MARS / Fold change vs veh, MARS / RFU, ZNF655 / Fold change vs veh, ZNF655 / RFU, FAHD1 / Fold change vs veh, FAHD1 / RFU, BDP1 / Fold change vs veh, BDP1 / RFU, LRRCC1 / Fold change vs veh, LRRCC1 / RFU, ARID1A / Fold change vs veh, ARID1A / RFU, ZNF146 / Fold change vs veh, ZNF146 / RFU, ZNF330 / Fold change vs veh, ZNF330 / RFU, GPN3 / Fold change vs veh, GPN3 / RFU, C9orf123 / Fold change vs veh, C9orf123 / RFU, N4BP2L2 / Fold change vs veh, N4BP2L2 / RFU, ARFIP1 / Fold change vs veh, ARFIP1 / RFU, FAM179B / Fold change vs veh, FAM179B / RFU, BCL10 / Fold change vs veh, BCL10 / RFU, UHRF1BP1L / Fold change vs veh, UHRF1BP1L / RFU, BET1 / Fold change vs veh, BET1 / RFU, CNOT2 / Fold change vs veh, CNOT2 / RFU, ZNF268 / Fold change vs veh, ZNF268 / Fold change vs veh, ZNF507 / RFU, DGCR2 / Fold change vs veh, DGCR2 / RFU, WDSUB1 / Fold change vs veh, WDSUB1 / Fold change vs veh, HSP90B1 /// MIR3652 / RFU, ADSS / Fold change vs veh, ADSS / RFU, GK / Fold change vs veh, GK / RFU, ZNF148 / Fold change vs veh, ZNF148 / RFU, TAF9 / Fold change vs veh, TAF9 / RFU, SLC1A5 / Fold change vs veh, SLC1A5 / RFU, SLMO2 / Fold change vs veh, SLMO2 / RFU, ABCC4 / Fold change vs veh, ABCC4 / RFU, LOC101060439 /// RAP1B / Fold change vs veh, LOC101060439 /// RAP1B / RFU, RFX7 / Fold change vs veh, RFX7 / RFU, GTPBP10 / Fold change vs veh, GTPBP10 / RFU, CNEP1R1 / Fold change vs veh, CNEP1R1 / RFU, BIVM-ERCC5 /// ERCC5 / Fold change vs veh, BIVM-ERCC5 /// ERCC5 / RFU, ILF3 / Fold change vs veh, ILF3 / RFU 11762660_at / Fold change /veh 11762660_at / RFU VCAN (11757783_s_at) / Fold change /veh VCAN (11757783_s_at) / RFU DDX43 (11728927_at) / Fold change /veh DDX43 (11728927_at) / RFU KRT8 (11758188_x_at) / Fold change /veh KRT8 (11758188_x_at) / RFU NKD1 (11759106_at) / Fold change /veh NKD1 (11759106_at) / RFU SRD5A1 (11742802_a_at) / Fold change /veh SRD5A1 (11742802_a_at) / RFU TPSAB1 /// TPSB2 (11721975_s_at) / Fold change /veh TPSAB1 /// TPSB2 (11721975_s_at) / RFU GSTM3 (11746129_a_at) / Fold change /veh GSTM3 (11746129_a_at) / RFU IL23R (11737362_x_at) / Fold change /veh IL23R (11737362_x_at) / RFU TMEM51 (11727254_a_at) / Fold change /veh TMEM51 (11727254_a_at) / RFU PIWIL2 (11732686_x_at) / Fold change /veh PIWIL2 (11732686_x_at) / RFU ORM1 (11744905_x_at) / Fold change /veh ORM1 (11744905_x_at) / RFU CCDC152 (11743942_at) / Fold change /veh CCDC152 (11743942_at) / RFU ECM1 (11717891_a_at) / Fold change /veh ECM1 (11717891_a_at) / RFU IL23R (11748794_a_at) / Fold change /veh IL23R (11748794_a_at) / RFU TNFAIP8L3 (11732012_x_at) / Fold change /veh TNFAIP8L3 (11732012_x_at) / RFU MBOAT4 (11741988_at) / Fold change /veh MBOAT4 (11741988_at) / RFU 11764193_at / Fold change /veh 11764193_at / RFU TMEM53 (11763286_at) / Fold change /veh TMEM53 (11763286_at) / RFU MAGEB2 (11727129_at) / Fold change /veh MAGEB2 (11727129_at) / RFU TMEM200A (11744735_a_at) / Fold change /veh TMEM200A (11744735_a_at) / RFU CCDC152 (11751479_a_at) / Fold change /veh CCDC152 (11751479_a_at) / RFU FAM211A (11726209_a_at) / Fold change /veh FAM211A (11726209_a_at) / RFU RGS16 (11746705_a_at) / Fold change /veh RGS16 (11746705_a_at) / RFU VCAN (11755009_s_at) / Fold change /veh VCAN (11755009_s_at) / RFU RHOB (11743442_s_at) / Fold change /veh RHOB (11743442_s_at) / RFU RGS16 (11720943_a_at) / Fold change /veh RGS16 (11720943_a_at) / RFU RGS16 (11720944_at) / Fold change /veh RGS16 (11720944_at) / RFU, VPS4B / Fold change vs veh, VPS4B / RFU, CREB1 / Fold change vs veh, CREB1 / RFU, DNAJC13 / Fold change vs veh, DNAJC13 / RFU, GNAQ / Fold change vs veh, GNAQ / RFU, CDK5R1 / Fold change vs veh, CDK5R1 / RFU, ZRANB3 / Fold change vs veh, ZRANB3 / RFU, CUL4A / Fold change vs veh, CUL4A / RFU, CCNY / Fold change vs veh, CCNY / RFU, UFL1 / Fold change vs veh, UFL1 / RFU, COG3 / Fold change vs veh, COG3 / RFU, DIAPH2 / Fold change vs veh, DIAPH2 / RFU, SKA2 / Fold change vs veh, SKA2 / RFU, AFF3 / Fold change vs veh, AFF3 / RFU, LMF1 / Fold change vs veh, LMF1 / RFU, IPO11 / Fold change vs veh, IPO11 / RFU, DFFB / Fold change vs veh, DFFB / RFU, FOXP1 / Fold change vs veh, FOXP1 / RFU, CARD8 / Fold change vs veh, CARD8 / RFU, STRN3 / Fold change vs veh, STRN3 / RFU, ADK / Fold change vs veh, ADK / RFU, RASSF2 / Fold change vs veh, RASSF2 / RFU, WIPF1 / Fold change vs veh, WIPF1 / RFU, LARP1B / Fold change vs veh, LARP1B / RFU, RASA1 / Fold change vs veh, RASA1 / RFU, RB1 / Fold change vs veh, RB1 / RFU, PPFIA1 / Fold change vs veh, PPFIA1 / RFU, MAT2A / Fold change vs veh, MAT2A / RFU, CCT5 / Fold change vs veh, CCT5 / RFU, WDR92 / Fold change vs veh, WDR92 / RFU, CUX1 / Fold change vs veh, CUX1 / RFU, TTC7A / Fold change vs veh, TTC7A / RFU, TMEM135 / Fold change vs veh, TMEM135 / RFU, DEPTOR / Fold change vs veh, DEPTOR / RFU, CPM / Fold change vs veh, CPM / RFU, DNAJB6 / Fold change vs veh, DNAJB6 / RFU, CACNA2D3 / Fold change vs veh, CACNA2D3 / RFU, DTX4 / Fold change vs veh, DTX4 / RFU, TFCP2 / Fold change vs veh, TFCP2 / RFU, GMCL1 /// GMCL1P1 / Fold change vs veh, GMCL1 /// GMCL1P1 / RFU, AEBP2 / Fold change vs veh, AEBP2 / RFU, SNHG1 /// SNORD22 /// SNORD25 /// SNORD26 /// SNORD27 /// SNORD28 /// SNORD29 /// SNORD31 / Fold change vs veh, SNHG1 /// SNORD22 /// SNORD25 /// SNORD26 /// SNORD27 /// SNORD28 /// SNORD29 /// SNORD31 / Fold change (Aza/veh), C12orf56 (ProbeSet 11735607_a_at) / Fold change (ACY-1035/veh), C12orf56 (ProbeSet 11735607_a_at) / Fold change (Aza/veh), FGFR1OP (ProbeSet 11751329_s_at) / Fold change (ACY-1035/veh), FGFR1OP (ProbeSet 11751329_s_at) / Fold change (Aza/veh), VPS36 (ProbeSet 11739960_a_at) / Fold change (ACY-1035/veh), VPS36 (ProbeSet 11739960_a_at) / RFU SYPL1 (11715823_x_at) / Fold change /veh SYPL1 (11715823_x_at) / RFU IGFBP7 (11715501_s_at) / Fold change /veh IGFBP7 (11715501_s_at) / RFU REEP3 (11722064_at) / Fold change /veh REEP3 (11722064_at) / RFU IGLL1 (11728026_x_at) / Fold change /veh IGLL1 (11728026_x_at): dose or concentration left out as unconfirmed
# Details: MV-4-11 cells, 48 hours
smiles,measurement,value
Nc1ccc(-c2cccs2)cc1NC(=O)c1ccc2c(c1)cc(C1CC1)n2CCN1CCOCC1 [ACY-1035],Fold change /veh TNFAIP8L3 (11732012_x_at),1.18
